Test results published in patent US8889639B2, “Compositions and methods for modulating PGC-1β to treat lipid-related diseases and disorders” (Dana-Farber Cancer Institute, Inc., priority 2004, dated 2014).

What was measured:
SREBP2 and SREBP1a = assay: FAS -700 luc reporter with SREBP2 and SREBP1a and PGC-1β RNAi constructs in hepatoma cells; type: cell-based, mouse; settings: FAS promoter reporter
Text: (§1) FIGS. 7A-H illustrate the requirement for PGC-1β in SREBP-mediated transcription. In particular, FIG. 7A depicts knockdown of PGC-1β protein levels by RNAi constructs. Cultured 293 cells were transiently transfected with PGC-1β expression plasmid (f-PGC-1β) in the presence of RNAi constructs or a vector control. Transfected cells were harvested for immunoblotting using a monoclonal antibody against the Flag epitope. Both RNAi constructs decrease PGC-1β protein levels compared to the vector control. FIGS. 7 B-E depict hepatoma cells that were transiently transfected with FAS—700 luc (B-C), G6Pase −1200 luc (D) or 4×LXRE-luc (E) in combination with plasmids. For RNAi, either a vector control or RNAi constructs directed toward PGC-1β were included in the transfection experiments. Luciferase activity was measured 48 hours after transfection. FIG. 7F depicts knockdown of PGC-1β protein by adenoviral expression of RNAi. H2.35 hepatoma cells were infected with Ad-GFP or Ad-RNAi for two days and then infected with Ad-PGC-1β. Total lysates were prepared for immunoblotting analysis using antibodies raised against PGC-1β. […] Total RNA was isolated from infected cells and analyzed by real-time PCR using primers specific for the genes. […] Relative SREBP1c expression was determined by real-time PCR analysis and normalized to 18S rRNA. […]

LXRα = assay: 4×LXRE-luc reporter in H2.35 hepatoma cells; type: cell-based, mouse; settings: reporter containing multimerized LXR responsive elements, RNAi cotransfection
Method: FIG. 6A-E illustrate the coactivation of LXRα by PGC-1α and PGC-1β. In particular, FIG. 6A depicts H2.35 hepatoma cells that were transiently transfected with 4×LXRE-luc in combination with plasmids. Transfected cells were treated with either vehicle DMSO (open box) or 10 μM of the LXR agonist T0901317 (filled box) for 24 hours before luciferase assay. FIG. 6B depicts H2.35 hepatoma cells that were transiently transfected with wild-type ABCA1 promoter reporter plasmid-(ABCA1-luc) or a mutant lacking the LXRE (ABCA1 ΔLXRE-luc) in combination with plasmids. Transfected cells were treated with vehicle or T0901317 as described in FIG. 6A. FIG. 6C depicts CHIP analysis on LXR target genes. H2.35 cells were infected with adenoviruses expressing GFP, flag-PGC-1α or flag-PGC-1β. Cells were treated with 10 μM of T0901317 for 3 hours before harvesting. PCR was performed on input or precipitated DNA using primers as indicated FIG. 6D depicts the interaction between LXRα and the N-termini of the PGC-1β proteins. […]
FIGS. 7A-H illustrate the requirement for PGC-1β in SREBP-mediated transcription. […] Luciferase activity was measured 48 hours after transfection. […] Total RNA was isolated from infected cells and analyzed by real-time PCR using primers specific for the genes. […] Relative SREBP1c expression was determined by real-time PCR analysis and normalized to 18S rRNA. […]

G6Pase promoter = assay: G6Pase -1200 luc reporter with PGC-1α and HNF4α and PGC-1β RNAi constructs in hepatoma cells; type: cell-based, mouse
Text: as §1

PGC-1β = assay: Free fatty acid treatment of primary hepatocytes, PGC-1β mRNA by real-time PCR; type: cell-based, mouse; settings: 400 μM fatty acid, 4 hours
Text: FIGS. 1A-D depict the induction of PGC-1β expression by dietary intake of saturated fats. In particular, FIG. 1A depicts a cluster analysis of liver gene expression in response to high-fat feeding. FIG. 1A exemplifies genes involved in hepatic lipogenesis that are induced more than 1.8-fold in response to high-fat feeding. A representative probe set was used in generating the tree in the event multiple probe sets were available for a single gene. SREBP1c and PGC-1β were included in this lipogenic cluster. FIG. 1B depicts the real-time PCR analysis of total liver RNA from mice fed a high-fat diet for 1 day (hatched box) or 2 days (filled box). Relative mRNA abundance was calculated by normalization to the control chow values (open box); N=4;*: p<0.01. FIG. 1C depicts the real-time PCR analysis of total liver RNA from mice fed a control diet containing 0.07% cholesterol (open box) or a diet containing 2% cholesterol for 1 day (hatched box) or 2 days (filled box). Values were normalized to those from mice fed the control diet; N=4;*: p<0.02. FIG. 1D depicts the regulation of PGC-1β expression by free fatty acids in isolated hepatocytes. Primary hepatocytes were treated with 400 μM of various fatty acids for 4 hours. Total RNA was isolated and analyzed by realtime PCR using primers specific for […] and PGC-1β (open box); *: p<0.01.
Primary hepatocytes were isolated following perfusion of whole liver first with perfusion buffer (Hank's Balanced Saline, HBSS) and then a collagenase solution (HBSS with 1% BSA and 0.05% collagenase). Dispersed cells were resuspended and seeded onto collagen-coated plates in DMEM supplemented with 10% FBS in the presence of 1 mM sodium pyruvate, 1 μM dexamethasone and 50 nM insulin. The cells were subsequently maintained in DMEM supplemented with 0.1% BSA and 1 mM sodium pyruvate for 24 hours before treatments. Free fatty acids were dissolved in ethanol as 100 mM stock solutions for further dilution in DMEM supplemented with 0.5% BSA to a final concentration of 400 μM. Hepatocytes were treated for 4 hours before RNA isolation and analysis.
(§2) Total RNA was isolated from liver or cultured hepatocytes using Trizol reagent (Invitrogen™). For real-time PCR analysis, cDNA was synthesized by reverse transcription using random primers and subjected to PCR amplification with genespecific primers in the presence of Cybergreen (Biorad™). Relative abundance of mRNA was calculated after normalization to 18S ribosomal RNA. For hybridization, 20 μg of total RNA was resolved on a formaldehyde gel, transferred to nylon membrane and hybridized with 32P-labeled gene-specific probes. Hybridization to ribosomal protein 36B4 was included as loading control.

hepatic gene expression = assay: High-cholesterol feeding, liver gene expression by real-time PCR; type: in vivo, mouse; settings: diet containing 2% cholesterol vs 0.07% control
Method: Animals were fed a standard rodent chow and housed in a controlled environment with twelve-hour light and dark cycles. For high-fat feeding, three-month old male C57/B16J mice were switched to a diet containing 58% fat-derived calorie (D12331, Research Diets™) for 24 or 48 hours. For high-cholesterol feeding, two groups of mice were fed a base diet supplemented with either 0.07% or 2% cholesterol for 24 or 48 hours. Liver was dissected and immediately frozen for RNA isolation. The feeding experiments were repeated three times with four mice per group for each dietary treatment.
as §2
To examine whether dietary cholesterol had any impact on the expression of SREBPs and PGC-1β mice were fed a control diet containing 0.07% cholesterol or a similar diet containing 2% cholesterol. […] This induction of the genetic program of hepatic lipogenesis following acute intake of a high saturated fat diet was not previously observed.

PGC-1α = assay: Free fatty acid treatment of primary hepatocytes, PGC-1α mRNA by real-time PCR; type: cell-based, mouse; settings: 400 μM fatty acid, 4 hours
Method: FIG. 1D depicts the regulation of PGC-1β expression by free fatty acids in isolated hepatocytes. Primary hepatocytes were treated with 400 μM of various fatty acids for 4 hours. Total RNA was isolated and analyzed by realtime PCR using primers specific for PGC-1β (filled box) and PGC-1β (open box); *: p<0.01.
Total RNA was isolated from liver or cultured hepatocytes using Trizol reagent (Invitrogen™). […] Relative abundance of mRNA was calculated after normalization to 18S ribosomal RNA.

5′-GATATCCTCTGTGATGTTA-3′ (expressed or natural sequence) [SEQ ID NO 60, PGC-1β RNAi construct in pSUPER-retro vector under the H1-RNA promoter]
SREBP transcriptional activity with SREBP2 and SREBP1a (SREBP2 and SREBP1a): very similar reduction | LXRα/RXRα transcriptional activity (LXRα): do not alter | regulation of G6Pase promoter activity by PGC-1α and HNF4α (G6Pase promoter): little or no effect

5′-GTACGGAACTGCATAAGCA-3′ (expressed or natural sequence; the letters are possibly those of the target site) [SEQ ID NO:61, PGC-1β RNAi construct in pSUPER-retro vector under the H1-RNA promoter]
SREBP transcriptional activity with SREBP2 and SREBP1a (SREBP2 and SREBP1a): very similar reduction | LXRα/RXRα transcriptional activity (LXRα): do not alter | regulation of G6Pase promoter activity by PGC-1α and HNF4α (G6Pase promoter): little or no effect

CC/C=C\C/C=C\C/C=C\C/C=C\C/C=C\CCCC(=O)O [EPA]
PGC-1β expression (PGC-1β): only slightly induce

CCCCC/C=C\C/C=C\C/C=C\C/C=C\CCCC(=O)O [arachidonic acid]
PGC-1β expression (PGC-1β): only slightly induce

CC(C)CCC[C@@H](C)[C@H]1CC[C@H]2[C@@H]3CC=C4C[C@@H](O)CC[C@]4(C)[C@H]3CC[C@]12C [cholesterol]
SREBP1c mRNA (hepatic gene expression): slightly increased | expression of PGC-1β (hepatic gene expression): not altered | hepatic expression of mRNA encoding SREBP2, along with HMGCoA reductase (hepatic gene expression): suppresses | mRNA level of FAS, SCD-1 and glucose kinase (GK) (hepatic gene expression): remains largely unchanged

CCCCCCCC/C=C/CCCCCCCC(=O)O [elaidic acid]
expression of PGC-1α (PGC-1α): 3.2 fold

CCCCC/C=C\C/C=C\CCCCCCCC(=O)O [linoleic acid]
PGC-1β expression (PGC-1β): only slightly induce

CCCCCCCC/C=C\CCCCCCCC(=O)O [oleic acid]
PGC-1β expression (PGC-1β): only slightly induce

CCCCCCCCCCCCCCCCCC(=O)O [stearic acid]
PGC-1β mRNA (PGC-1β): 2.2 fold

CCCCCC/C=C/CCCCCCCCCC(=O)O [trans-vaccenic acid]
expression of PGC-1α (PGC-1α): 3.2 fold
